{"source": "patent US20190263927A1", "about": "“COMBINATION OF A PD-1 ANTAGONIST AND ERIBULIN FOR TREATING UROTHELIAL CANCER” (Merck Sharp & Dohme Corp., priority 2016, published 2019)", "origin": "cited, not measured here", "test_system": "patients with metastatic UC (mUC)", "conditions": "eribulin monotherapy; patients with metastatic/advanced UC; NCI Protocol No. 7435", "data": [{"compound": "C=C1C[C@@H]2CC[C@@]34C[C@H]5O[C@H]6[C@@H](O3)[C@H]3O[C@H](CC[C@@H]3O[C@H]6[C@H]5O4)CC(=O)C[C@@H]3[C@@H](OC)[C@@H](C[C@H](O)CN)O[C@H]3C[C@H]3O[C@@H](CC[C@@H]1O2)C[C@@H](C)C3=C", "note": "[Eribulin]", "values": [{"measurement": "clinical benefit for treatment of patients with mUC", "value": "provide clinical benefit"}]}]}
